# Results taken from paper PMC11999265, “New routes for spermine biosynthesis” (The Journal of Biological Chemistry, 2025).
# Assays:
# Brucella abortus CASDH = target: T1, Brucella abortus CASDH (Brucella abortus, UniProt Q2YPK8); conditions: endogenous putrescine, BL21speD, coexpressed with CASDC
# T1 construct: gene BAB1_0364
# [1] = target: T2, Psychromonas marina CASDH (Psychromonas marina, UniProt A0ABQ6DYR2); assay: LC-MS of benzoylated spermidine in E. coli extract; format: cell-based; conditions: endogenous putrescine, BL21speD, coexpressed with CASDC
# T2 sequence (A0ABQ6DYR2 1-405): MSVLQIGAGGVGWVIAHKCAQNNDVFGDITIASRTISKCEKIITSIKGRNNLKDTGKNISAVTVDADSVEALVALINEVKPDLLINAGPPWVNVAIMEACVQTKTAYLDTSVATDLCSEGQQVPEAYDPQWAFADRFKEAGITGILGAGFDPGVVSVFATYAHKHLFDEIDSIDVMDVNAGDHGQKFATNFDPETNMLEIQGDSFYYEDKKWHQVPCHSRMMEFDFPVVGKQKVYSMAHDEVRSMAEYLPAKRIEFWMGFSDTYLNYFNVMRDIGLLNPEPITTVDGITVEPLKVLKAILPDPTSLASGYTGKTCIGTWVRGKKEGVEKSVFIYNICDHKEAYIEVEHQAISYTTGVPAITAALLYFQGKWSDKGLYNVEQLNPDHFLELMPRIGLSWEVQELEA
compound,measurement,setting,value
NCCCCN [putrescine],LC-MS of benzoylated spermidine in E. coli extract,Brucella abortus CASDH,all CASDH/CASDC pairs were able to synthesize spermidine in the spermidine-void BL21speD cells
same,LC-MS of benzoylated spermidine in E. coli extract,[1],all CASDH/CASDC pairs were able to synthesize spermidine in the spermidine-void BL21speD cells
